Columns and labels:
[1] = tested on: BG1 ovarian cancer cell line; test: Binding activity (connectivity) of peptide-conjugated magnetic beads to cancer cells; parameters: species or system Human; details: 10 ng/mL peptide
Method: Human ovarian cancer cell line, BG1, was used. BG1 was cultured in DMEM/F12 medium containing 10% Fetal Bovine Serum (FBS). Other conditions of the culture are 37° C. and 5% CO2 in moisture atmosphere.
(§1) 10 ng/mL of the peptide SEQ ID NO:1 of the present invention was used to examine the binding activity to different cancer cells, including pancreatic cancer cell line (BxPC3), colon cancer cell line (HCT8), cervical cancer cell line (HeLa), and liver cancer cell line (HepG2).

ovarian cancer cells = test: Capturing test with peptide-conjugated magnetic beads, microscopic observation; assay type: binding; details: 10^5 ovarian cancer cells
Method: (A) magnetic beads without peptide conjugation; (B) magnetic beads conjugated to 10 μg/mL of peptide; (C) magnetic beads conjugated to 10 ng/mL of peptide; (D) magnetic beads conjugated to 10 ρg/mL of peptide.
Different concentrations of the peptide of the present invention were conjugated to magnetic beads, wherein said concentrations are 10 μg/mL, 10 ng/mL, and 10 ρg/mL. The capturing test was performed using 10^5 ovarian cancer cells.

other cancer cells = test: Binding activity to other cancer cells (average over non-ovarian lines)
Method: as §1

[2] = tested on: liver cancer cell line (HepG2); test: Binding activity (connectivity) of peptide-conjugated magnetic beads to cancer cells; details: 10 ng/mL peptide
Method: (§2) Other cell lines were used in the embodiments of the present invention including pancreatic cancer cell line (BxPC3), colon cancer cell line (HCT8), cervical cancer cell line (HeLa), and liver cancer cell line (HepG2).
as §1

[3] = tested on: colon cancer cell line (HCT8); test: as above; details: 10 ng/mL peptide
Method: as §2, §1

[4] = tested on: pancreatic cancer cell line (BxPC3); test: as above; details: 10 ng/mL peptide
Method: as §2, §1

[5] = tested on: cervical cancer cell line (HeLa); test: as above; details: 10 ng/mL peptide
Method: as §2, §1

Substance: N′-MPHPTKNFDLYV-C′ [peptide of the present invention]
- Connectivity (%) [1]: about 80%
- Connectivity (%) ([1]; listed as peptide): more than 80%
- Connectivity (%) ([1]; listed as peptide of present invention): 80.38 ± 2.69%
- connection to ovarian cancer cells under microscopic observation (ovarian cancer cells; peptide 10 μg/mL, 10 ng/mL and 10 ρg/mL conjugated to magnetic beads): able to connect to ovarian cancer cells
- peptide concentration required to efficiently capture ovarian cancer cells (ovarian cancer cells; peptide conjugated to magnetic beads): 10 ρg/mL
- average connectivity to other cancer cells (other cancer cells; 10 ng/mL peptide, average of non-ovarian cancer cell lines): about 20%
- binding activity to other cancers (other cancer cells; pancreatic, colorectal, cervical or liver cancer): negligible binding activity
- Connectivity (%) [2]: 15.77 ± 5.25%
- Connectivity (%) [3]: 22.37 ± 1.89%
- Connectivity (%) [4]: 12.89 ± 0.21%
- Connectivity (%) [5]: 26.02 ± 2.01%

Reference: patent publication US9170261B2, “Peptide specific for ovarian cancer and applications” (National Tsing Hua University, priority 2013, dated 2015)
